Data as given in ChEMBL document CHEMBL1130302, “1-Arylsulfonyl-3-(-hydroxybenzyl)-1H-pyrroles, a novel class of anti-HIV-1 reverse transcriptase inhibitors” (Bioorg Med Chem Lett, 1997).

Key:
[1] = test system: Human immunodeficiency virus 1; test: Concentration required to achieve 50% protection of MT-4 cells against the cytopathic effect of HIV-1; assay type: functional, organism-based; details: Human immunodeficiency virus 1, MT4
[2] = test system: MT4; test: Concentration required to reduce the viability of mock-infected MT-4 cells by 50%; assay type: functional; details: Homo sapiens
[3] = Selectivity index reported as ratio of CC50 to EC50; assay type: functional
[4] = target: Human immunodeficiency virus type 1 reverse transcriptase (Human immunodeficiency virus 1, UniProt Q72547); test: Inhibition of HIV-1 recombinant reverse transcriptase

| SMILES | EC50 [1] [µM] | CC50 [2] [µM] | Ratio [3] | IC50 [4] [µM] | SI [3] |
| --- | --- | --- | --- | --- | --- |
| O=[N+]([O-])c1ccc(S(=O)(=O)n2ccc(C(O)c3ccc(Cl)cc3Cl)c2)cc1 (stereo not given) | 22 | 50 | 2.2 |  |  |
| Cc1ccc(C(O)c2ccn(S(=O)(=O)c3ccccc3)c2)cc1 (stereo not given) | 15 | 122 | 8 |  |  |
| O=S(=O)(c1ccccc1)n1ccc(C(c2ccccc2)n2ccnc2)c1 (stereo not given) | > 25 | 25 |  |  |  |
| CCOC(=O)c1cc(C(O)c2ccc(Cl)cc2Cl)cn1S(=O)(=O)c1cc(Cl)ccc1N (stereo not given) | 16 | 29 | 1.8 |  |  |
| Cc1ccc(S(=O)(=O)n2cc(C(O)c3ccc(Cl)cc3Cl)cc2C(=O)OC(C)C)cc1 (stereo not given) | 22 | 32 | 1.4 |  |  |
| CCOC(=O)c1cc(C(O)c2ccc(Cl)cc2Cl)cn1S(=O)(=O)c1ccc(C)cc1 (stereo not given) | 14 | 36 | 2.6 |  |  |
| COC(c1ccn(S(=O)(=O)c2ccc(C)cc2)c1)c1ccc(Cl)cc1Cl (stereo not given) | > 82 | 82 |  |  |  |
| CC(C)c1ccc(S(=O)(=O)n2ccc(C(O)c3ccc(Cl)cc3Cl)c2)cc1 (stereo not given) | 1.8 | 51 | 28 | 2.5 |  |
| O=S(=O)(c1ccccc1)n1ccc(C(O)c2c(F)cccc2F)c1 (stereo not given) | 48 | 100 | 2 |  |  |
| CC(C)OC(=O)c1cc(C(O)c2ccc(Cl)cc2Cl)cn1S(=O)(=O)c1ccc(Cl)cc1 (stereo not given) | > 28 | 28 |  |  |  |
| Cc1ccc(C(=O)c2ccn(S(=O)(=O)c3ccccc3)c2)cc1 | > 30 | 30 |  |  |  |
| Cc1ccc(C(O)c2ccn(S(=O)(=O)c3ccc(C)cc3)c2)cc1 (stereo not given) | 7.3 | 96 | 13 | 4.7 |  |
| O=S(=O)(c1ccccc1)n1ccc(C(O)c2ccccc2F)c1 (stereo not given) | 9.1 | > 200 | > 22 |  |  |
| O=S(=O)(c1ccccc1)n1ccc(C(O)c2ccc(Cl)cc2Cl)c1 (stereo not given) | 5 | 57 | 11 | > 30 |  |
| O=S(=O)(c1ccccc1)n1ccc(C(O)c2ccc(Cl)cc2)c1 (stereo not given) | 9 | 66 | 7 |  |  |
| CCOC(=O)c1cc(C(O)c2ccc(Cl)cc2Cl)cn1S(=O)(=O)c1cc(Cl)ccc1[N+](=O)[O-] (stereo not given) | > 14 | 14 |  |  |  |
| O=C(c1ccn(S(=O)(=O)c2ccccc2)c1)c1ccc(Cl)cc1Cl | > 30 | 30 |  |  |  |
| Cc1ccnc2c1NC(=O)c1cccnc1N2C1CC1 [NEVIRAPINE] |  | > 200 |  |  |  |
| Cc1ccc(S(=O)(=O)n2ccc(C(O)c3ccc(Cl)cc3Cl)c2)cc1 (stereo not given) | 0.3 | 61 | 203 | 18 |  |

| SMILES | EC50 [1] [µM] | CC50 [2] [µM] | Ratio [3] | IC50 [4] [µM] | SI [3] |
| --- | --- | --- | --- | --- | --- |
| O=S(=O)(c1ccccc1)n1ccc(C(O)c2ccccc2)c1 (stereo not given) | 8 | 124 | 15 |  |  |
| O=S(=O)(c1ccc(Cl)cc1)n1ccc(C(O)c2ccc(Cl)cc2Cl)c1 (stereo not given) | 4.4 | 96 | 21.8 | 17 |  |
| CC(C)(C)c1ccc(S(=O)(=O)n2ccc(C(O)c3ccc(Cl)cc3Cl)c2)cc1 (stereo not given) | 2.5 | 62 |  | 6.4 | 24 |
| Cc1ccccc1S(=O)(=O)n1ccc(C(O)c2ccc(Cl)cc2Cl)c1 (stereo not given) | 1.7 | > 200 | > 117 | 27 |  |
| Nc1ccc(S(=O)(=O)n2ccc(C(O)c3ccc(Cl)cc3Cl)c2)cc1 (stereo not given) | 11 | 74 | 6.7 |  |  |
| Nc1ccc(Cl)cc1S(=O)(=O)n1ccc(C(O)c2ccccc2)c1 (stereo not given) | 3.2 | 109 | 34 | > 30 |  |
| Cc1ccc(C(c2ccn(S(=O)(=O)c3ccccc3)c2)n2ccnc2)cc1 (stereo not given) | > 26 | 26 |  |  |  |
| O=S(=O)(c1ccccc1)n1ccc(C(c2ccc(Cl)cc2Cl)n2ccnc2)c1 (stereo not given) | > 14 | 14 |  |  |  |
| CCc1ccc(S(=O)(=O)n2ccc(C(O)c3ccc(Cl)cc3Cl)c2)cc1 (stereo not given) | 1.5 | 71 | 47 | 22 |  |
| O=C(c1ccccc1)c1ccn(S(=O)(=O)c2ccccc2)c1 | > 32 | 32 |  |  |  |
| O=S(=O)(c1ccccc1)n1ccc(C(O)c2ccccc2Cl)c1 (stereo not given) | 4.1 | 113 | 27.5 | 29.5 |  |
| CC(=O)OC(c1ccn(S(=O)(=O)c2ccc(C)cc2)c1)c1ccc(Cl)cc1Cl (stereo not given) | 9.8 | 100 | 10 |  |  |
| CCOP(=O)(OCC)OP(=O)(OCC)OCC [ETHYL PYROPHOSPHATE] | 7 | 740 | 106 |  |  |
| CC(O)c1ccn(S(=O)(=O)c2cc(Cl)ccc2N)c1 (stereo not given) | > 95 | 95 |  |  |  |
| O=S(=O)(c1ccccc1)n1ccc(C(c2ccc(Cl)cc2)n2ccnc2)c1 (stereo not given) | > 22 | 22 |  |  |  |
| Cc1cn([C@H]2C[C@H](N=[N+]=[N-])[C@@H](CO)O2)c(=O)[nH]c1=O [ZIDOVUDINE] | 0.01 | > 20 |  |  |  |
| O=C(c1ccc(Cl)cc1)c1ccn(S(=O)(=O)c2ccccc2)c1 | > 26 | 26 |  |  |  |
| Cc1ccc(S(=O)(=O)n2ccc(C(O)c3ccc(Cl)cc3Cl)c2)c(C)c1 (stereo not given) | 0.3 | 60 | 200 | < 1.1 |  |
| COc1ccc(C(O)c2ccn(S(=O)(=O)c3ccc(C)cc3)c2)cc1 (stereo not given) | 15.7 | > 200 | > 12 |  |  |
